#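 1) Cells in 96-well plates. 2) Compound, 48 h, 5 concentrations. 3) Linear interpolation between surrounding doses. 4) Unreached endpoint = highest concentration. At the TGI there is no net growth.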
# How the values were obtained:
# Experiment in all cases: DTP human tumour cell line panel, 48 h
# XF 498 CNS = test system: XF 498 CNS
# HOP-62 NSCLC = test system: HOP-62 NSCLC
# U251 CNS = test system: U251 CNS
# SNB-75 CNS = test system: SNB-75 CNS
# KM12 colon = test system: KM12 colon
# EKVX NSCLC = test system: EKVX NSCLC
# HCT-116 colon = test system: HCT-116 colon
# SK-MEL-2 melanoma = test system: SK-MEL-2 melanoma
# OVCAR-3 ovarian = test system: OVCAR-3 ovarian
# DLD-1 colon = test system: DLD-1 colon
# TK-10 renal = test system: TK-10 renal
# UO-31 renal = test system: UO-31 renal
# CAKI-1 renal = test system: CAKI-1 renal
# CCRF-CEM leukemia = test system: CCRF-CEM leukemia
# HOP-92 NSCLC = test system: HOP-92 NSCLC
# M19-MEL melanoma = test system: M19-MEL melanoma
# SK-OV-3 ovarian = test system: SK-OV-3 ovarian
# LXFL 529 NSCLC = test system: LXFL 529 NSCLC
# OVCAR-8 ovarian = test system: OVCAR-8 ovarian
# SNB-78 CNS = test system: SNB-78 CNS
# OVCAR-4 ovarian = test system: OVCAR-4 ovarian
# NCI-H226 lung = test system: NCI-H226 lung
# LOX IMVI melanoma = test system: LOX IMVI melanoma
# KM20L2 colon = test system: KM20L2 colon
# UACC-62 melanoma = test system: UACC-62 melanoma
# NCI-H460 lung = test system: NCI-H460 lung
# SN12C renal = test system: SN12C renal
# COLO 205 colon = test system: COLO 205 colon
# HCT-15 colon = test system: HCT-15 colon
# M14 melanoma = test system: M14 melanoma
# A549 NSCLC = test system: A549 NSCLC
# DMS 114 small cell lung = test system: DMS 114 small cell lung
# OVCAR-5 ovarian = test system: OVCAR-5 ovarian
# 786-0 renal = test system: 786-0 renal
# MALME-3M melanoma = test system: MALME-3M melanoma
# ACHN renal = test system: ACHN renal
# SR leukemia = test system: SR leukemia
# UACC-257 melanoma = test system: UACC-257 melanoma
# NCI-H522 lung = test system: NCI-H522 lung
# HL-60(TB) leukemia = test system: HL-60(TB) leukemia
# SF-539 CNS = test system: SF-539 CNS
# RPMI-8226 leukemia = test system: RPMI-8226 leukemia
# SK-MEL-28 melanoma = test system: SK-MEL-28 melanoma
# SF-295 CNS = test system: SF-295 CNS
# SF-268 CNS = test system: SF-268 CNS
# SNB-19 CNS = test system: SNB-19 CNS
# HT29 colon = test system: HT29 colon
# K-562 leukemia = test system: K-562 leukemia
# IGROV1 ovarian = test system: IGROV1 ovarian
# SK-MEL-5 melanoma = test system: SK-MEL-5 melanoma
# SW-620 colon = test system: SW-620 colon
# MOLT-4 leukemia = test system: MOLT-4 leukemia
# NCI-H23 lung = test system: NCI-H23 lung
# HS 578T breast = test system: HS 578T breast
# RXF 393 renal = test system: RXF 393 renal
# MCF7 breast = test system: MCF7 breast
# MDA-MB-231 breast = test system: MDA-MB-231 breast
# T-47D breast = test system: T-47D breast
# MDA-MB-435 = test system: MDA-MB-435
# HCC-2998 colon = test system: HCC-2998 colon
# DMS 273 small cell lung = test system: DMS 273 small cell lung
# BT-549 breast = test system: BT-549 breast
# PC-3 prostate = test system: PC-3 prostate
# NCI/ADR-RES ovarian = test system: NCI/ADR-RES ovarian
# A498 renal = test system: A498 renal
# DU-145 prostate = test system: DU-145 prostate
# MDA-N = test system: MDA-N
smiles,measurement,setting,value
O=[N+]([O-])c1nccn1COCCF,TGI,XF 498 CNS,> 100 µM
same,TGI,HOP-62 NSCLC,> 100 µM
same,TGI,U251 CNS,> 100 µM
same,TGI,SNB-75 CNS,> 100 µM
same,TGI,KM12 colon,> 100 µM
same,TGI,EKVX NSCLC,> 100 µM
same,TGI,HCT-116 colon,> 100 µM
same,TGI,SK-MEL-2 melanoma,> 100 µM
same,TGI,OVCAR-3 ovarian,> 100 µM
same,TGI,DLD-1 colon,> 100 µM
same,TGI,TK-10 renal,> 100 µM
same,TGI,UO-31 renal,> 100 µM
same,TGI,CAKI-1 renal,> 100 µM
same,TGI,CCRF-CEM leukemia,> 100 µM
same,TGI,HOP-92 NSCLC,> 100 µM
same,TGI,M19-MEL melanoma,> 100 µM
same,TGI,SK-OV-3 ovarian,> 100 µM
same,TGI,LXFL 529 NSCLC,> 100 µM
same,TGI,OVCAR-8 ovarian,> 100 µM
same,TGI,SNB-78 CNS,> 100 µM
same,TGI,OVCAR-4 ovarian,> 100 µM
same,TGI,NCI-H226 lung,> 100 µM
same,TGI,LOX IMVI melanoma,> 100 µM
same,TGI,KM20L2 colon,> 100 µM
same,TGI,UACC-62 melanoma,> 100 µM
same,TGI,NCI-H460 lung,> 100 µM
same,TGI,SN12C renal,> 100 µM
same,TGI,COLO 205 colon,> 100 µM
same,TGI,HCT-15 colon,> 100 µM
same,TGI,M14 melanoma,> 100 µM
same,TGI,A549 NSCLC,> 100 µM
same,TGI,DMS 114 small cell lung,> 100 µM
same,TGI,OVCAR-5 ovarian,> 100 µM
same,TGI,786-0 renal,> 100 µM
same,TGI,MALME-3M melanoma,> 100 µM
same,TGI,ACHN renal,> 100 µM
same,TGI,SR leukemia,> 100 µM
same,TGI,UACC-257 melanoma,> 100 µM
same,TGI,NCI-H522 lung,> 100 µM
same,TGI,HL-60(TB) leukemia,> 100 µM
same,TGI,SF-539 CNS,> 100 µM
same,TGI,RPMI-8226 leukemia,> 100 µM
same,TGI,SK-MEL-28 melanoma,> 100 µM
same,TGI,SF-295 CNS,> 100 µM
same,TGI,SF-268 CNS,> 100 µM
same,TGI,SNB-19 CNS,> 100 µM
same,TGI,HT29 colon,> 100 µM
same,TGI,K-562 leukemia,> 100 µM
same,TGI,IGROV1 ovarian,> 100 µM
same,TGI,SK-MEL-5 melanoma,> 100 µM
same,TGI,SW-620 colon,> 100 µM
same,TGI,MOLT-4 leukemia,> 100 µM
same,TGI,NCI-H23 lung,> 100 µM
CC(C)n1c2c([n+](C)c1/C=C/c1ccccc1)C(=O)c1ccccc1C2=O,TGI,HOP-62 NSCLC,1.61 µM
same,TGI,U251 CNS,0.738 µM
same,TGI,SNB-75 CNS,1.48 µM
same,TGI,KM12 colon,0.975 µM
same,TGI,EKVX NSCLC,1.25 µM
same,TGI,HS 578T breast,7.8 µM
same,TGI,HCT-116 colon,0.433 µM
same,TGI,RXF 393 renal,2.19 µM
same,TGI,SK-MEL-2 melanoma,0.48 µM
same,TGI,MCF7 breast,0.214 µM
same,TGI,OVCAR-3 ovarian,0.0289 µM
same,TGI,DLD-1 colon,3.79 µM
same,TGI,TK-10 renal,2.39 µM
same,TGI,UO-31 renal,10.1 µM
same,TGI,CAKI-1 renal,12.4 µM
same,TGI,MDA-MB-231 breast,0.884 µM
same,TGI,CCRF-CEM leukemia,10.9 µM
same,TGI,HOP-92 NSCLC,1.48 µM
same,TGI,M19-MEL melanoma,0.321 µM
same,TGI,SK-OV-3 ovarian,1.07 µM
same,TGI,LXFL 529 NSCLC,0.788 µM
same,TGI,OVCAR-8 ovarian,1.96 µM
same,TGI,SNB-78 CNS,0.413 µM
same,TGI,OVCAR-4 ovarian,1 µM
same,TGI,T-47D breast,0.61 µM
same,TGI,NCI-H226 lung,2.2 µM
same,TGI,MDA-MB-435,0.547 µM
same,TGI,LOX IMVI melanoma,0.971 µM
same,TGI,KM20L2 colon,1.31 µM
same,TGI,UACC-62 melanoma,0.644 µM
same,TGI,NCI-H460 lung,2.43 µM
same,TGI,HCC-2998 colon,2.06 µM
same,TGI,DMS 273 small cell lung,0.341 µM
same,TGI,SN12C renal,0.169 µM
same,TGI,BT-549 breast,0.667 µM
same,TGI,COLO 205 colon,0.0993 µM
same,TGI,PC-3 prostate,0.726 µM
same,TGI,HCT-15 colon,23.9 µM
same,TGI,NCI/ADR-RES ovarian,> 100 µM
same,TGI,M14 melanoma,1.08 µM
same,TGI,A549 NSCLC,4.68 µM
same,TGI,DMS 114 small cell lung,0.0439 µM
same,TGI,OVCAR-5 ovarian,1.28 µM
same,TGI,786-0 renal,8.11 µM
same,TGI,MALME-3M melanoma,0.248 µM
same,TGI,ACHN renal,10.9 µM
same,TGI,SR leukemia,> 21 µM
same,TGI,UACC-257 melanoma,0.123 µM
same,TGI,NCI-H522 lung,0.15 µM
same,TGI,HL-60(TB) leukemia,1.14 µM
same,TGI,SF-539 CNS,0.363 µM
same,TGI,A498 renal,2.76 µM
same,TGI,RPMI-8226 leukemia,8.96 µM
same,TGI,SK-MEL-28 melanoma,1.6 µM
same,TGI,DU-145 prostate,0.948 µM
same,TGI,SF-295 CNS,2.52 µM
same,TGI,SF-268 CNS,1.01 µM
same,TGI,SNB-19 CNS,0.784 µM
same,TGI,HT29 colon,2.18 µM
same,TGI,K-562 leukemia,9.61 µM
same,TGI,IGROV1 ovarian,0.0688 µM
same,TGI,MDA-N,0.686 µM
same,TGI,SK-MEL-5 melanoma,0.252 µM
same,TGI,SW-620 colon,1.21 µM
same,TGI,MOLT-4 leukemia,0.745 µM
same,TGI,NCI-H23 lung,0.412 µM
NCCCN1CCN(CC(=O)O)CCN(CCCN)CCN(CC(=O)O)CC1,TGI,HOP-62 NSCLC,> 100 µM
same,TGI,U251 CNS,> 100 µM
same,TGI,SNB-75 CNS,> 100 µM
same,TGI,KM12 colon,> 100 µM
same,TGI,EKVX NSCLC,> 100 µM
same,TGI,HS 578T breast,> 100 µM
same,TGI,HCT-116 colon,> 100 µM
same,TGI,RXF 393 renal,> 100 µM
same,TGI,SK-MEL-2 melanoma,> 76.1 µM
same,TGI,MCF7 breast,> 100 µM
same,TGI,OVCAR-3 ovarian,> 100 µM
same,TGI,TK-10 renal,> 100 µM
same,TGI,UO-31 renal,> 100 µM
same,TGI,CAKI-1 renal,> 100 µM
same,TGI,MDA-MB-231 breast,> 100 µM
same,TGI,CCRF-CEM leukemia,> 100 µM
same,TGI,HOP-92 NSCLC,> 100 µM
same,TGI,SK-OV-3 ovarian,> 100 µM
same,TGI,OVCAR-8 ovarian,> 100 µM
same,TGI,OVCAR-4 ovarian,> 100 µM
same,TGI,T-47D breast,> 100 µM
same,TGI,NCI-H226 lung,> 100 µM
same,TGI,MDA-MB-435,> 100 µM
same,TGI,LOX IMVI melanoma,> 100 µM
same,TGI,UACC-62 melanoma,> 100 µM
same,TGI,NCI-H460 lung,> 100 µM
same,TGI,HCC-2998 colon,> 100 µM
same,TGI,SN12C renal,> 100 µM
same,TGI,BT-549 breast,> 100 µM
same,TGI,COLO 205 colon,> 100 µM
same,TGI,PC-3 prostate,> 100 µM
same,TGI,HCT-15 colon,> 100 µM
same,TGI,NCI/ADR-RES ovarian,> 100 µM
same,TGI,M14 melanoma,> 100 µM
same,TGI,A549 NSCLC,> 100 µM
same,TGI,OVCAR-5 ovarian,> 93.8 µM
same,TGI,786-0 renal,> 85.3 µM
same,TGI,MALME-3M melanoma,> 100 µM
same,TGI,ACHN renal,> 100 µM
same,TGI,SR leukemia,> 100 µM
same,TGI,UACC-257 melanoma,> 100 µM
same,TGI,NCI-H522 lung,> 84.2 µM
same,TGI,HL-60(TB) leukemia,> 100 µM
same,TGI,SF-539 CNS,> 100 µM
same,TGI,A498 renal,> 100 µM
same,TGI,RPMI-8226 leukemia,> 100 µM
same,TGI,SK-MEL-28 melanoma,> 100 µM
same,TGI,DU-145 prostate,> 100 µM
same,TGI,SF-295 CNS,> 100 µM
same,TGI,SF-268 CNS,> 100 µM
same,TGI,SNB-19 CNS,> 100 µM
same,TGI,HT29 colon,> 100 µM
same,TGI,K-562 leukemia,> 100 µM
same,TGI,IGROV1 ovarian,> 100 µM
same,TGI,MDA-N,> 100 µM
same,TGI,SK-MEL-5 melanoma,21.3 µM
same,TGI,SW-620 colon,> 100 µM
same,TGI,MOLT-4 leukemia,> 100 µM
same,TGI,NCI-H23 lung,> 100 µM

# From PubChem BioAssay (NCI)
